Experimental data reported in patent US9949965B2, “Tricyclic indole Mcl-1 inhibitors and uses thereof” (priority 2014, dated 2018).
Where two headings read alike, the source gives them in different places.

Columns and labels:
[1] = molecular target: T1, recombinant Mcl-1 (residues 172-327) (Homo sapiens, UniProt Q07820); assay: Bak peptide binding assay: fluorescence polarization anisotropy competition (FITC-Bak BH3 peptide); details: 10 nM FITC-Bak, 14 nM Mcl-1, Ki converted from IC50
T1 construct: 14 nM recombinant Mcl-1 (residues 172-327) were added to assay buffer
Protocol: (§1) Bak Peptide Binding Assay
(§2) Compound affinity was measured using a fluorescence polarization anisotropy competition assay. Anisotropy measurements were carried out in 384-well, black, flat-bottom plates (Greiner Bio-one, Monroe, N.C., USA). The assay was run using a fluorescein isothiocyanate-labeled BH3 peptide derived from Bak (FITC-AHx-[…] […] H2) (SEQ ID NO: 1) that was purchased from GenScript (Piscataway, N.J.) at >95% purity and used without further purification. 10 nM FITC-Bak peptide and 14 nM recombinant Mcl-1 (residues 172-327) were added to assay buffer (3 mM dithiothreitol, 50 mM NaCl, 20 mM Tris, pH 7.5). For selectivity assays, 40 nM Bcl-2 (residues 1-207^A96T,G110R, Δ35-91, replaced with Bcl-xL35-50) or 4 nM Bcl-xL (residues 1-209, loop 45-86 deleted) were incubated with 10 nM FITC-Bak in assay buffer.
(§3) Compounds are diluted in DMSO in a 10-point, 3-fold serial dilution scheme. 2.5 uL compound is added to 47.5 uL of assay buffer containing FITC-Bak and protein, for a final DMSO concentration of 5% and a top concentration of 20 uM. […] The plate was mixed and incubated for 90 minutes at room temperature. Anisotropy is measured at excitation wavelength 480 nm and emission wavelength 535 nm using an EnVision Multi-label plate reader (PerkinElmer, Wellesley, Mass., USA). Fluorescence anisotropy is plotted against compound concentration to generate an IC50 (inhibitor concentration at which 50% of bound peptide is displaced) by fitting the data to a 4-parameter logistic model using XLFit software (Guildford, Surrey, UK). IC50 is converted to a binding dissociation constant (Ki value) according to the formula of Wang Z. FEBS Lett (1996) 3, 245: Ki=[I]50/([L]50/Kd+[P]0/Kd+1) where [I]50 is the concentration of the free inhibitor at 50% inhibition, [L]50 is the concentration of the free labeled ligand at 50% inhibition, [P]0 is the concentration of the free protein at 0% inhibition, Kd represents the dissociation constant of the FITC peptide probe.

[2] = molecular target: T2, Bcl-xL (residues 1-209, loop 45-86 deleted) (Homo sapiens, UniProt Q07817, DEL45-86); assay: biochemical; format: binding; details: Table 3; 10 nM FITC-Bak, 4 nM Bcl-xL; top concentration 20 uM
T2 construct: Bcl-xL (residues 1-209, loop 45-86 deleted)
Protocol: as §1, §2, §3

[3] = Ki For Inhibition of Mcl-I Protein, Table 2, binned range

T1 sequence (Q07820 172-327): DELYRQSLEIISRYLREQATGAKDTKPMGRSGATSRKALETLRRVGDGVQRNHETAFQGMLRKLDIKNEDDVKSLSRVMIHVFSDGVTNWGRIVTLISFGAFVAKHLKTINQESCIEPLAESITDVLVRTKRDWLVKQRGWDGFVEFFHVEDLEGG
T2 sequence (Q07817 other isoform, or with tags, fused parts or gaps DEL45-86): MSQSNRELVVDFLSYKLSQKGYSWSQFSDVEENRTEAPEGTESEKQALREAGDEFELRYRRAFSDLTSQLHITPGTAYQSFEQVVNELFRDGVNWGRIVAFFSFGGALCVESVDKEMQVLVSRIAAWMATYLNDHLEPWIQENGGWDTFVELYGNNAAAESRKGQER

Compound	Ki [1, 3]	also measured
O=C(O)c1c(CCOc2cccc3ccccc23)c2cccc3c2n1CCS3 [Example 1, 6-(2-(naphthalen-1-yloxy)ethyl)-2,3-dihydro-[1,4]thiazino[2,3,4-hi]indole-5-carboxylic acid]	1000 to 9990 nM	–
CS(=O)(=O)NC(=O)c1c(CCOc2cccc3ccccc23)c2cccc3c2n1CCS3 [Example 2, N-(methylsulfonyl)-6-(2-(naphthalen-1-yloxy)ethyl)-2,3-dihydro-[1,4]thiazino[2,3,4-hi]indole-5-carboxamide]	1000 to 9990 nM	–
Cc1cc(OCCc2c(C(=O)O)n3c4c(cccc24)SCC3)cc(C)c1Cl [Example 3, 6-(2-(4-chloro-3,5-dimethylphenoxy)ethyl)-2,3-dihydro-[1,4]thiazino[2,3,4-hi]indole-5-carboxylic acid]	1000 to 9990 nM	–
O=C(O)c1c(CCOc2cccc3ccccc23)c2cccc3c2n1CCC3 [Example 4, 1-(2-(naphthalen-1-yloxy)ethyl)-5,6-dihydro-4H-pyrrolo[3,2,1-ij]quinoline-2-carboxylic acid]	1000 to 9990 nM	–
O=C(O)c1c(CCOc2cccc3ccccc23)c2cccc3c2n1CCO3 [Example 5, 6-(2-(naphthalen-1-yloxy)ethyl)-2,3-dihydro-[1,4]oxazino[2,3,4-hi]indole-5-carboxylic acid]	1000 to 9990 nM	–
O=C(NS(=O)(=O)c1ccccc1)c1c(CCOc2cccc3ccccc23)c2cccc3c2n1CCO3 [Example 6, 6-(2-(naphthalen-1-yloxy)ethyl)-N-(phenylsulfonyl)-2,3-dihydro-[1,4]oxazino[2,3,4-hi]indole-5-carboxamide]	501 to 999 nM	–
O=C(O)c1c(CCCOc2cccc3ccccc23)c2cccc3c2n1CCS3 [Example 7, 6-(3-(naphthalen-1-yloxy)propyl)-2,3-dihydro-[1,4]thiazino[2,3,4-hi]indole-5-carboxylic acid]	101 to 299 nM	Ki ([1]; Ki Mcl-1, Table 3): 107 nM; Ki [2]: > 20000 nM
CS(=O)(=O)NC(=O)c1c(CCCOc2cccc3ccccc23)c2cccc3c2n1CCS3 [Example 8, N-(methylsulfonyl)-6-(3-(naphthalen-1-yloxy)propyl)-2,3-dihydro-[1,4]thiazino[2,3,4-hi]indole-5-carboxamide]	1000 to 9990 nM	–
O=C(O)c1c(CCCOc2cccc3c2CCCC3)c2cccc3c2n1CCS3 [Example 9, 6-(3-((5,6,7,8-tetrahydronaphthalen-1-yl)oxy)propyl)-2,3-dihydro-[1,4]thiazino[2,3,4-hi]indole-5-carboxylic acid]	101 to 299 nM	–
O=C(O)c1c(CCCOc2ccc(Cl)c3ccccc23)c2cccc3c2n1CCS3 [Example 10, 6-(3-((4-chloronaphthalen-1-yl)oxy)propyl)-2,3-dihydro-[1,4]thiazino[2,3,4-hi]indole-5-carboxylic acid]	101 to 299 nM	Ki ([1]; Table 3, read-out: Ki Mcl-1): 201 nM; Ki [2]: 4700 nM
O=C(O)c1c(CCCOc2ccc3c(c2)CCCC3)c2cccc3c2n1CCS3 [Example 11, 6-(3-((5,6,7,8-tetrahydronaphthalen-2-yl)oxy)propyl)-2,3-dihydro-[1,4]thiazino[2,3,4-hi]indole-5-carboxylic acid]	301 to 500 nM	–
Cc1cc(OCCCc2c(C(=O)O)n3c4c(cccc24)SCC3)ccc1Cl [Example 12, 6-(3-(4-chloro-3-methylphenoxy)propyl)-2,3-dihydro-[1,4]thiazino[2,3,4-hi]indole-5-carboxylic acid]	101 to 299 nM	–
Cc1cc(OCCCc2c(C(=O)O)n3c4c(cccc24)SCC3)cc(C)c1Cl [Example 13, 6-(3-(4-chloro-3,5-dimethylphenoxy)propyl)-2,3-dihydro-[1,4]thiazino[2,3,4-hi]indole-5-carboxylic acid]	≤ 100 nM	Ki ([1]; Table 3, read-out: Ki Mcl-1): 71 nM; Ki [2]: > 20000 nM
O=C(O)c1c(CCCOc2cccc3ccccc23)c2cccc3c2n1CCC3 [Example 14, 1-(3-(naphthalen-1-yloxy)propyl)-5,6-dihydro-4H-pyrrolo[3,2,1-ij]quinoline-2-carboxylic acid]	301 to 500 nM	–
CS(=O)(=O)NC(=O)c1c(CCCOc2cccc3ccccc23)c2cccc3c2n1CCC3 [Example 15, N-(methylsulfonyl)-1-(3-(naphthalen-1-yloxy)propyl)-5,6-dihydro-4H-pyrrolo[3,2,1-ij]quinoline-2-carboxamide]	1000 to 9990 nM	–
Cc1cc(OCCCc2c(C(=O)O)n3c4c(cccc24)CCC3)cc(C)c1Cl [Example 16, 1-(3-(4-chloro-3,5-dimethylphenoxy)propyl)-5,6-dihydro-4H-pyrrolo[3,2,1-ij]quinoline-2-carboxylic acid]	101 to 299 nM	–
Cc1cc(OCCCc2c(C(=O)NS(=O)(=O)c3ccccc3)n3c4c(cccc24)CCC3)cc(C)c1Cl [Example 17, 1-(3-(4-chloro-3,5-dimethylphenoxy)propyl)-N-(phenylsulfonyl)-5,6-dihydro-4H-pyrrolo[3,2,1-ij]quinoline-2-carboxamide]	301 to 500 nM	–
O=C(O)c1c(CCCOc2cccc3ccccc23)c2cccc3c2n1CCCS3 [Example 18, 7-(3-(naphthalen-1-yloxy)propyl)-3,4-dihydro-2H-[1,4]thiazepino[2,3,4-hi]indole-6-carboxylic acid]	101 to 299 nM	–
CS(=O)(=O)NC(=O)c1c(CCCOc2cccc3ccccc23)c2cccc3c2n1CCCS3 [Example 19, N-(methylsulfonyl)-7-(3-(naphthalen-1-yloxy)propyl)-3,4-dihydro-2H-[1,4]thiazepino[2,3,4-hi]indole-6-carboxamide]	501 to 999 nM	–
O=C(O)c1c(CCCOc2cccc3ccccc23)c2cccc3c2n1CCC[S+]3[O-] (stereo not drawn) [Example 20, 7-(3-(naphthalen-1-yloxy)propyl)-3,4-dihydro-2H-[1,4]thiazepino[2,3,4-hi]indole-6-carboxylic acid 1-oxide]	≤ 100 nM	Ki [2]: > 20000 nM
O=C(O)c1c(CCCOc2cccc3ccccc23)c2cccc3c2n1CCCS3(=O)=O [Example 21, 7-(3-(naphthalen-1-yloxy)propyl)-3,4-dihydro-2H-[1,4]thiazepino[2,3,4-hi]indole-6-carboxylic acid 1,1-dioxide]	≤ 100 nM	–
O=C(O)c1c(CCCOc2cccc3ccccc23)c2cccc3c2n1CCS3(=O)=O [Example 22, 6-(3-(naphthalen-1-yloxy)propyl)-2,3-dihydro-[1,4]thiazino[2,3,4-hi]indole-5-carboxylic acid 1,1-dioxide]	≤ 100 nM	–
Cc1cc(OCCCc2c(C(=O)O)n3c4c(cccc24)SCCC3)cc(C)c1Cl [Example 23, 7-(3-(4-chloro-3,5-dimethylphenoxy)propyl)-3,4-dihydro-2H-[1,4]thiazepino[2,3,4-hi]indole-6-carboxylic acid]	≤ 100 nM	Ki ([1]; Table 3, read-out: Ki Mcl-1): 40 nM; Ki [2]: > 20000 nM
Cc1cc(OCCCc2c(C(=O)NS(=O)(=O)c3ccccc3)n3c4c(cccc24)SCCC3)cc(C)c1Cl [Example 24, 7-(3-(4-chloro-3,5-dimethylphenoxy)propyl)-N-(phenylsulfonyl)-3,4-dihydro-2H-[1,4]thiazepino[2,3,4-hi]indole-6-carboxamide]	101 to 299 nM	–
O=C(O)c1c(CCCOc2cccc3ccccc23)c2cccc3c2n1CCO3 [Example 25, 6-(3-(naphthalen-1-yloxy)propyl)-2,3-dihydro-[1,4]oxazino[2,3,4-hi]indole-5-carboxylic acid]	101 to 299 nM	–
Cc1cc(OCCCc2c(C(=O)O)n3c4c(cccc24)OCC3)cc(C)c1Cl [Example 26, 6-(3-(4-chloro-3,5-dimethylphenoxy)propyl)-2,3-dihydro-[1,4]oxazino[2,3,4-hi]indole-5-carboxylic acid]	≤ 100 nM	–
Cc1cc(OCCCc2c(C(=O)O)n3c4c(c(Cl)ccc24)OCC3)cc(C)c1Cl [Example 27, 9-chloro-6-(3-(4-chloro-3,5-dimethylphenoxy)propyl)-2,3-dihydro-[1,4]oxazino[2,3,4-hi]indole-5-carboxylic acid]	≤ 100 nM	Ki ([1]; Table 3, read-out: Ki Mcl-1): 9 nM; Ki [2]: > 20000 nM
Cc1cc(OCCCc2c(C(=O)O)n3c4c(c(Cl)ccc24)CCC3)cc(C)c1Cl [Example 28, 7-chloro-1-(3-(4-chloro-3,5-dimethylphenoxy)propyl)-5,6-dihydro-4H-pyrrolo[3,2,1-ij]quinoline-2-carboxylic acid]	≤ 100 nM	–
